Data reported in paper PMC11323500, “Functional redundancy of ubiquitin-like sulfur-carrier proteins facilitates flexible, efficient sulfur utilization in the primordial archaeon Thermococcus kodakarensis” (mBio, 2024).

Target: T1, TK2117 (with TK2118 / UblB) (Thermococcus kodakarensis, UniProt Q5JEX2)
T1 construct: tag removal not mentioned; with Ubiquitin-like sulfur-carrier protein UblB (MoaD family)
T1 sequence (Q5JEX2 1-232): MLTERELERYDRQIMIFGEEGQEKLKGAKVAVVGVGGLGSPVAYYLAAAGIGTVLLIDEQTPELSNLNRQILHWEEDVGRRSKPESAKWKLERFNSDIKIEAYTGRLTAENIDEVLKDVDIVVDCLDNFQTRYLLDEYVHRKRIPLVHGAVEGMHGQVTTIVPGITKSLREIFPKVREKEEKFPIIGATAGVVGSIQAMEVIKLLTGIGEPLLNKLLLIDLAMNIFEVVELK
T1 sequence (Q5JEX1 1-88 partner): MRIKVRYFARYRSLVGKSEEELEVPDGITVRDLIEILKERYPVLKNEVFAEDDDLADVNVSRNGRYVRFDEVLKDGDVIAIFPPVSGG
Assay: pyrophosphate release measured as phosphate (Biomol Green, inorganic pyrophosphatase)
Assay type: biochemical
Conditions: 10 mM ATP; 5 mM MgCl2; 4.0 µM TK2117; 10.0 µM TK2118 as co-substrate; pH 8.0; 80 °C

Nc1ncnc2c1ncn2[C@@H]1O[C@H](COP(=O)(O)OP(=O)(O)OP(=O)(O)O)[C@@H](O)[C@H]1O [ATP]
pyrophosphate release measured as phosphate (Biomol Green, inorganic pyrophospha): TK2117 formed pyrophosphate in the presence of TK2118
